Data on 20 compounds can be found in ChEMBL document CHEMBL4699440, “Comprehensive review on the anti-bacterial activity of 1,2,3-triazole hybrids” (Eur J Med Chem, 2019).

In brackets after ≈: the same amount, converted by molar mass.

In assay [1] the test system is Klebsiella pneumoniae. Briefly: Antibacterial activity against Klebsiella pneumoniae ATCC 700603 incubated overnight by broth dilution technique. It counts as functional, organism-based.
Assay [2] concerns Enterococcus faecalis. Briefly: Antibacterial activity against Enterococcus faecalis MTCC 439 incubated overnight by broth dilution technique. The assay is classed as functional, organism-based.
For assay [3], the system named is Salmonella enterica. Briefly: Antibacterial activity against Salmonella enterica MTCC 3224 incubated overnight by broth dilution technique. It counts as functional, organism-based.
Assay [4] relates to Pseudomonas aeruginosa. In words: Antibacterial activity against Pseudomonas aeruginosa MTCC 2453 incubated overnight by broth dilution technique. It counts as functional, organism-based.
Assay [5] concerns Escherichia coli. Briefly: Antibacterial activity against Escherichia coli ATCC 25922 incubated overnight by broth dilution technique. The assay is classed as functional, organism-based.
Assay [6] has as its system Streptococcus pneumoniae. In words: Antibacterial activity against Streptococcus pneumoniae MTCC 655 incubated overnight by broth dilution technique. It counts as functional, organism-based.
Assay [7] has as its system Escherichia coli. In words: Antibacterial activity against Escherichia coli assessed as inhibition zone at 1 mg/ml measured after overnight incubation by disc diffusion method. The assay is classed as functional. To be noted: read-out: IZ.
Assay [8] has as its system Staphylococcus aureus. In words: Antibacterial activity against Staphylococcus aureus assessed as inhibition zone at 1 mg/ml measured after overnight incubation by disc diffusion method. It counts as functional. Particulars: read-out: IZ.
Assay [9] deals with Klebsiella pneumoniae. In words: Antibacterial activity against Klebsiella pneumoniae MTCC 618 incubated for 24 hrs by microdilution method. It counts as functional.
The subject of assay [10] is Pseudomonas aeruginosa. Briefly: Antibacterial activity against Pseudomonas aeruginosa assessed as inhibition zone at 1 mg/ml measured after overnight incubation by disc diffusion method. It counts as functional. Particulars: read-out: IZ.
Assay [11] deals with Bacillus subtilis. In words: Antibacterial activity against Bacillus subtilis assessed as inhibition zone at 1 mg/ml measured after overnight incubation by disc diffusion method. The assay is classed as functional. Particulars: read-out: IZ.
The subject of assay [12] is Bacillus spizizenii. In words: Antibacterial activity against Bacillus subtilis ATCC 6633 incubated for 24 hrs by broth dilution method. It counts as functional.
In assay [13] the test system is Proteus vulgaris. Briefly: Antibacterial activity against Proteus vulgaris ATCC […] incubated for 24 hrs by broth dilution method. It counts as functional.
The subject of assay [14] is Staphylococcus aureus. Briefly: Antibacterial activity against Staphylococcus aureus ATCC 9144 incubated for 24 hrs by broth dilution method. The assay is classed as functional.
The test system of assay [15] is Escherichia coli. Briefly: Antibacterial activity against Escherichia coli ATCC 25922 incubated for 24 hrs by broth dilution method. The assay is classed as functional.
For assay [16], the system named is Staphylococcus aureus. Briefly: Antibacterial activity against constitutively-resistant Staphylococcus aureus. The assay is classed as functional.
Assay [17] deals with Staphylococcus aureus. In words: Antibacterial activity against inducibly-resistant Staphylococcus aureus. It counts as functional.
The subject of assay [18] is Staphylococcus aureus. Briefly: Antibacterial activity against methicillin-resistant Staphylococcus aureus. The assay is classed as functional.
The test system of assay [19] is Aspergillus brasiliensis. Briefly: Antifungal activity against Aspergillus brasiliensis ATCC 16404 incubated for 24 hrs by microdilution method. It counts as functional.
In assay [20] the test system is Candida albicans. Briefly: Antifungal activity against Candida albicans ATCC 50193 incubated for 24 hrs by microdilution method. The assay is classed as functional.
In assay [21] the test system is Candida albicans. In words: Antifungal activity against Candida albicans MTCC 227 incubated for 2 days by microdilution method. To be noted: MTCC 227, 48 h, time 2 day. The assay is classed as functional.
Assay [22] has as its system Aspergillus niger. In words: Antibacterial activity against Aspergillus niger MTCC 8189 by serial dilution method. The assay is classed as functional.
For assay [23], the system named is Aspergillus brasiliensis. Briefly: Antifungal activity against Aspergillus brasiliensis MTCC 1344 incubated for 7 days by microdilution method. It counts as functional. Particulars: MTCC 1344, 168 h, time 7 day.
The test system of assay [24] is Aspergillus niger. In words: Antibacterial activity against Aspergillus niger ATCC 9029 incubated for 24 hrs by broth microdilution method. The assay is classed as functional.
Assay [25] deals with Candida albicans. In words: Antibacterial activity against Candida albicans MTCC 227 by serial dilution method. It counts as functional.
Assay [26] deals with Candida albicans. Briefly: Antifungal activity against Candida albicans ATCC 2091 incubated for 24 hrs by broth microdilution method. The assay is classed as functional.
Assay [27] relates to Escherichia coli. In words: Antibacterial activity against Escherichia coli JM109 after overnight incubation by CLSI M7-A9 based method. The assay is classed as functional.
Assay [28] deals with Escherichia coli. In words: Antibacterial activity against Escherichia coli ATCC 25922 after overnight incubation by CLSI M7-A9 based method. The assay is classed as functional.
The test system of assay [29] is Staphylococcus aureus. Briefly: Antibacterial activity against Staphylococcus aureus CIP 6525 after overnight incubation by CLSI M7-A9 based method. It counts as functional.
Assay [30] concerns Enterococcus faecalis. In words: Antibacterial activity against Enterococcus faecalis ATCC 29212 after overnight incubation by CLSI M7-A9 based method. The assay is classed as functional.
The subject of assay [31] is Sphingomonas paucimobilis. In words: Antibacterial activity against Flavobacterium devorans ATCC 10829 incubated for 24 hrs. It counts as functional.
For assay [32], the system named is Escherichia coli. In words: Antibacterial activity against Escherichia coli NCIM 2256 incubated for 24 hrs. It counts as functional.
Assay [33] relates to Micrococcus luteus. Briefly: Antibacterial activity against Micrococcus Luteus ATCC 398 incubated for 24 hrs. It counts as functional.
Assay [34] has as its system Staphylococcus aureus. Briefly: Antibacterial activity against Staphylococcus aureus ATCC 29737 incubated for 24 hrs. It counts as functional.
Assay [35] has as its system Pseudomonas fluorescens. In words: Antibacterial activity against Pseudomonas fluorescens NCIM 2173 incubated for 24 hrs. The assay is classed as functional.
For assay [36], the system named is Bacillus cereus. Briefly: Antibacterial activity against Bacillus cereus ATCC 6630 incubated for 24 hrs. The assay is classed as functional.

Regarding `O=[N+]([O-])c1ccc(-n2cc(COc3cccc4cccnc34)nn2)cc1`, the IC50 in [1], in assay [2], in [3], in [4], in assay [5] and in [6] was 106 µg/mL (≈ 305 µM) in each case.
Regarding `CCn1cc(C(=O)O)c(=O)c2cc(F)c(N3CCNCC3)cc21` [NORFLOXACIN], the zone of inhibition at 1000 µg/mL in assay [7], in [8], in [10] and in assay [11] was 2.5 mm each time. Further, the lowest concentration to inhibit growth in assay [9] (MIC) was 9.38 µg/mL (≈ 29.4 µM).
With `O=C(/C=C1\C(=O)N(Cc2cn(Cc3ccccc3)nn2)c2ccc(Br)cc21)c1cc(Cl)cc(Cl)c1OCc1cn(Cc2ccccc2)nn1`, the MIC in [12], in [13], in assay [14] and in assay [15] was 1.56 µg/mL (≈ 2.06 µM) each time.
As to SPIRAMYCIN, the MIC in assay [16], in assay [17] and in assay [18] was over 256 µg/mL each time.
For `CO[C@@H]1[C@@H](O[C@@H]2O[C@H](C)[C@@H](O[C@H]3C[C@@](C)(O)[C@@H](OC(=O)CCCc4cn(C56CC7CC(CC(C7)C5)C6)nn4)[C@H](C)O3)[C@H](N(C)C)[C@H]2O)[C@H]2CC(O[Si](C)(C)C(C)(C)C)O[C@@H]1CC(=O)O[C@H](C)CC/C=C/C=C/[C@H](O[C@H]1CC[C@H](N(C)C)[C@@H](C)O1)[C@H](C)C2` (some centres not stated), the MIC in [16], in assay [17] and in assay [18] was 8 µg/mL (≈ 6.44 µM) each time.
Take `OC(Cn1cncn1)(Cn1cncn1)c1ccc(F)cc1F` [FLUCONAZOLE]: the MIC in [19] is 4 µg/mL (≈ 13.1 µM); in [20], 1 µg/mL (≈ 3.27 µM); in [21], 0.0408 µM (≈ 0.0125 µg/mL); in assay [22], 5.1 µM (≈ 1.56 µg/mL); in assay [23] it was 0.0716 µM (≈ 0.0219 µg/mL); in assay [24] it was 8 µg/mL (≈ 26.1 µM). Moreover, the MIC is 5.1 µM (≈ 1.56 µg/mL) in assay [25] and 8 µg/mL (≈ 26.1 µM) in [26].
Take `NS(=O)(=O)c1ccc(-n2cc(COc3cccc4cccnc34)nn2)cc1`: the IC50 in assay [1], in assay [2], in assay [3], in [4], in assay [5] and in [6] was 106 µg/mL (≈ 278 µM) throughout.
As to `C[C@H](c1ccccc1)N(CC(N)=O)C(=O)CN(C(=O)CN(Cc1cn(CC2CCCCC2)n[n+]1C)C(=O)CN(C(=O)CN(C(=O)CN(Cc1cn(CC2CCCCC2)n[n+]1C)C(=O)CN(C(=O)CN(C(=O)CNCc1cn(CC2CCCCC2)n[n+]1C)[C@H](C)c1ccccc1)[C@H](C)c1ccccc1)[C@H](C)c1ccccc1)[C@H](C)c1ccccc1)[C@H](C)c1ccccc1`, the MIC in assay [27], in assay [28], in assay [29] and in [30] was over 1.6 µg/mL throughout.
With `Clc1ccc(-n2cc(COc3cccc4cccnc34)nn2)cc1`, the IC50 in [1], in [2], in assay [3], in [4], in assay [5] and in [6] was 106 µg/mL (≈ 315 µM) each time.
Regarding `C[C@H](c1ccccc1)N(CC(N)=O)C(=O)CN(C(=O)CN(Cc1cn(Cc2ccccc2)n[n+]1C)C(=O)CN(C(=O)CN(C(=O)CN(Cc1cn(Cc2ccccc2)n[n+]1C)C(=O)CN(C(=O)CN(C(=O)CNCc1cn(Cc2ccccc2)n[n+]1C)[C@H](C)c1ccccc1)[C@H](C)c1ccccc1)[C@H](C)c1ccccc1)[C@H](C)c1ccccc1)[C@H](C)c1ccccc1`, the MIC in assay [27], in [28], in [29] and in assay [30] was over 1.6 µg/mL in each case.
For `c1ccc(-n2cc(COc3cccc4cccnc34)nn2)cc1`, the IC50 in assay [1], in [2], in assay [3], in [4], in assay [5] and in assay [6] was 106 µg/mL (≈ 350 µM) each time.
On to `C[C@H](c1ccccc1)N(CC(N)=O)C(=O)CN(C(=O)CN(Cc1cn(CC2CCCCC2)nn1)C(=O)CN(C(=O)CN(C(=O)CNCc1cn(CC2CCCCC2)nn1)[C@H](C)c1ccccc1)[C@H](C)c1ccccc1)[C@H](C)c1ccccc1`, for which the MIC in [27], in [28], in assay [29] and in assay [30] was over 1.6 µg/mL each time.
On to `Fc1ccc(-n2cc(COc3cccc4cccnc34)nn2)cc1`, for which the IC50 in assay [1], in assay [2], in assay [3], in assay [4], in [5] and in assay [6] was 106 µg/mL (≈ 331 µM) each time.
As for `Cc1ccc(-n2cc(COc3cccc4cccnc34)nn2)cc1`, the IC50 in assay [1], in [2], in assay [3], in assay [4], in assay [5] and in [6] was 113 µg/mL (≈ 356 µM) in each case.
As for `O=C(/C=C1\C(=O)N(Cc2cn(Cc3ccccc3)nn2)c2ccccc21)c1cc(Cl)cc(Cl)c1OCc1cn(Cc2ccccc2)nn1`, the MIC in assay [12], in assay [13], in assay [14] and in [15] was 1.56 µg/mL (≈ 2.31 µM) in each case.
Take `Oc1cccc2cccnc12` [OXYQUINOLINE]: the IC50 in assay [1], in assay [2], in assay [3], in assay [4], in [5] and in assay [6] was 15.6 µg/mL (≈ 108 µM) throughout.
`C[C@H](c1ccccc1)N(CC(N)=O)C(=O)CN(C(=O)CN(Cc1cn(CCN)n[n+]1C)C(=O)CN(C(=O)CN(C(=O)CN(Cc1cn(CCN)n[n+]1C)C(=O)CN(C(=O)CN(C(=O)CN(Cc1cn(CCN)n[n+]1C)C(=O)CN(C(=O)CN(C(=O)CNCc1cn(CCN)n[n+]1C)[C@H](C)c1ccccc1)[C@H](C)c1ccccc1)[C@H](C)c1ccccc1)[C@H](C)c1ccccc1)[C@H](C)c1ccccc1)[C@H](C)c1ccccc1)[C@H](C)c1ccccc1`: the MIC in assay [27], in assay [28], in assay [29] and in assay [30] was over 1.6 µg/mL in each case.
In the case of GENTAMICIN, the MIC in assay [12], in [13], in assay [14] and in assay [15] was 1.56 µg/mL in each case.
For `O=C(N[C@H](CO)[C@H](O)c1ccc([N+](=O)[O-])cc1)C(Cl)Cl` [CHLORAMPHENICOL], the MIC came to 2 µg/mL (≈ 6.19 µM) in assay [31]; 1.56 µg/mL (≈ 4.83 µM) in assay [12]; 2 µg/mL (≈ 6.19 µM) in assay [32]; 1.56 µg/mL (≈ 4.83 µM) in assay [13]; 2 µg/mL (≈ 6.19 µM) in assay [33]; 2 µg/mL (≈ 6.19 µM) in assay [34]. For the same compound, the MIC in assay [14] worked out at 1.56 µg/mL (≈ 4.83 µM); in assay [15], 1.56 µg/mL (≈ 4.83 µM); in [35], 2 µg/mL (≈ 6.19 µM); in assay [36], 2 µg/mL (≈ 6.19 µM).
As for `CO[C@@H]1[C@@H](O[C@@H]2O[C@H](C)[C@@H](O[C@H]3C[C@@](C)(O)[C@@H](OC(=O)CCCc4cn(CSc5ccccc5)nn4)[C@H](C)O3)[C@H](N(C)C)[C@H]2O)[C@H]2CC(O[Si](C)(C)C(C)(C)C)O[C@@H]1CC(=O)O[C@H](C)CC/C=C/C=C/[C@H](O[C@H]1CC[C@H](N(C)C)[C@@H](C)O1)[C@H](C)C2` (some centres not stated), the MIC in [16], in assay [17] and in assay [18] was 8 µg/mL (≈ 6.5 µM) each time.
